Measured values: US11180462B2, “Microbiocidal oxadiazole derivatives” (SYNGENTA PARTICIPATIONS AG, priority 2015, dated 2021)

What was measured:
[1] = system: Glomerella lagenarium (Colletotrichum lagenarium); experiment: Fungicidal activity against Glomerella lagenarium (Colletotrichum lagenarium) liquid culture / cucumber / preventative (anthracnose); format: cell-based; settings: Colletotrichum orbiculare; 20 ppm in the applied formulation; liquid culture (PDB), growth inhibition measured photometrically after 3 to 4 days; compared to untreated control; read-out: disease control
In short: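 Photometric read-out of fungal growth after 2–7 days, expressed as percent antifungal activity versus untreated check. Cryo-stored conidia in PDB; compound at 20 ppm; dark, 24 °C, 96% RH.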

Phakopsora Pachyrhizi = experiment: Fungicidal activity against Phakopsora pachyrhizi / soybean / leaf disc preventative (Asian soybean rust); format: in vivo; settings: foliar, 200 ppm in the applied formulation, soybean leaf disks, compared to untreated control leaf disks, read-out: disease control
In short: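 Preventative soybean leaf-disc test: discs on water agar sprayed with diluted formulated compound, inoculated one day later with spores on the lower surface. Held 24–36 h dark at 20°C, 75% rh, then 12 h light/day; percent disease control versus untreated discs scored 12–14 days after application.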

[2] = system: Puccinia recondita f. Sp. Tritici; experiment: Fungicidal activity against Puccinia recondita f. sp. tritici / wheat / leaf disc curative (brown rust); format: in vivo; settings: foliar, 24 h, 200 ppm in the applied formulation, wheat leaf segments, curative (applied 1 day after inoculation), compared to untreated control leaf disks, read-out: disease control
In short: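 Segments of wheat cv. Kanzler were laid on agar and inoculated with a spore suspension of the rust, then held in darkness at 19° C and 75% relative humidity. One day later the water-diluted formulated compound was applied, with incubation continued under a 12 h light/dark cycle.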

[3] = system: Puccinia recondita f. Sp. Tritici; experiment: Fungicidal activity against Puccinia recondita f. sp. tritici / wheat / leaf disc preventative (brown rust); format: in vivo; settings: foliar, 200 ppm in the applied formulation, wheat leaf segments, preventative, compared to untreated control leaf disks, read-out: disease control
In short: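 Preventative leaf-segment test, wheat cv. Kanzler on water agar. Spray compound at 200 ppm, inoculate with spores 1 day later; 19° C., 75% rh, 12/12 h light. Read-out: % disease control vs untreated, 7 to 9 days after application.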

O=C(N(Cc1ccc(-c2noc(C(F)(F)F)n2)cc1)C1CC1)C1(C(F)(F)F)CCC1 [Compound 1.92, N-cyclopropyl-1-(trifluoromethyl)-N-[[4-[5-(trifluoromethyl)-1,2,4-oxadiazol-3-yl]phenyl]methyl]-cyclobutane-carboxamide]
≥ 80%: inhibition of growth at 20 ppm [1] | pest or weed control at 200 ppm (Phakopsora Pachyrhizi) | pest or weed control at 200 ppm [2] | pest or weed control at 200 ppm [3]

CCON(Cc1ccc(-c2noc(C(F)(F)F)n2)cc1)C(C)=O [Compound 1.631, N-ethoxy-N-[[4-[5-(trifluoromethyl)-1,2,4-oxadiazol-3-yl]phenyl]methyl]-acetamide]
≥ 80%: inhibition of growth at 20 ppm [1] | pest or weed control at 200 ppm (Phakopsora Pachyrhizi) | pest or weed control at 200 ppm [2] | pest or weed control at 200 ppm [3]

N#CC1(C(=O)N(Cc2ccc(-c3noc(C(F)(F)F)n3)cc2)C2COC2)CC1 [Compound 1.749, 1-cyano-N-(oxetan-3-yl)-N-[[4-[5-(trifluoromethyl)-1,2,4-oxadiazol-3-yl]phenyl]methyl]-cyclopropane-carboxamide]
≥ 80%: inhibition of growth at 20 ppm [1] | pest or weed control at 200 ppm (Phakopsora Pachyrhizi) | pest or weed control at 200 ppm [2] | pest or weed control at 200 ppm [3]

C#CCN(Cc1ccc(-c2noc(C(F)(F)F)n2)cc1)C(=O)C(C)CC(C)=O (centres unmarked) [Compound 1.164, 2-methyl-4-oxo-N-prop-2-ynyl-N-[[4-[5-(trifluoromethyl)-1,2,4-oxadiazol-3-yl]phenyl]methyl]-pentanamide]
≥ 80%: inhibition of growth at 20 ppm [1] | pest or weed control at 200 ppm (Phakopsora Pachyrhizi) | pest or weed control at 200 ppm [2] | pest or weed control at 200 ppm [3]

CN(Cc1ccc(-c2noc(C(F)(F)F)n2)cc1)C(=O)C1CCCO1 (centres unmarked) [Compound 1.528, N-methyl-N-[[4-[5-(trifluoromethyl)-1,2,4-oxadiazol-3-yl]phenyl]methyl]-tetrahydrofuran-2-carboxamide]
≥ 80%: inhibition of growth at 20 ppm [1] | pest or weed control at 200 ppm (Phakopsora Pachyrhizi) | pest or weed control at 200 ppm [2] | pest or weed control at 200 ppm [3]

CON(Cc1ccc(-c2noc(C(F)(F)F)n2)cc1)C(=O)N1CCCC1 [Compound 3.60, N-methoxy-N-[[4-[5-(trifluoromethyl)-1,2,4-oxadiazol-3-yl]phenyl]methyl]-pyrrolidine-1-carboxamide]
≥ 80%: inhibition of growth at 20 ppm [1] | pest or weed control at 200 ppm (Phakopsora Pachyrhizi) | pest or weed control at 200 ppm [2] | pest or weed control at 200 ppm [3]

O=C(c1ccccc1)N(Cc1ccc(-c2noc(C(F)(F)F)n2)cc1)C1CC1 [Compound 1.150, N-cyclopropyl-N-[[4-[5-(trifluoromethyl)-1,2,4-oxadiazol-3-yl]phenyl]methyl]-benzamide]
≥ 80%: inhibition of growth at 20 ppm [1] | pest or weed control at 200 ppm (Phakopsora Pachyrhizi) | pest or weed control at 200 ppm [2] | pest or weed control at 200 ppm [3]

CCN(Cc1ccc(-c2noc(C(F)(F)F)n2)cc1)C(=O)COC [Compound 1.499, N-ethyl-2-methoxy-N-[[4-[5-(trifluoromethyl)-1,2,4-oxadiazol-3-yl]phenyl]methyl]-acetamide]
≥ 80%: inhibition of growth at 20 ppm [1] | pest or weed control at 200 ppm (Phakopsora Pachyrhizi) | pest or weed control at 200 ppm [2] | pest or weed control at 200 ppm [3]

COCCCC(=O)N(Cc1ccc(-c2noc(C(F)(F)F)n2)cc1)C(C)C [Compound 1.681, N-isopropyl-4-methoxy-N-[[4-[5-(trifluoromethyl)-1,2,4-oxadiazol-3-yl]phenyl]methyl]-butanamide]
≥ 80%: inhibition of growth at 20 ppm [1] | pest or weed control at 200 ppm (Phakopsora Pachyrhizi) | pest or weed control at 200 ppm [2] | pest or weed control at 200 ppm [3]

CCC(C)N(Cc1ccc(-c2noc(C(F)(F)F)n2)cc1)C(=O)C1CCCCO1 (centres unmarked) [Compound 1.368, N-sec-butyl-N-[[4-[5-(trifluoromethyl)-1,2,4-oxadiazol-3-yl]phenyl]methyl]-tetrahydropyran-2-carboxamide]
≥ 80%: inhibition of growth at 20 ppm [1] | pest or weed control at 200 ppm (Phakopsora Pachyrhizi) | pest or weed control at 200 ppm [2] | pest or weed control at 200 ppm [3]

COCCCC(=O)N(CCO)Cc1ccc(-c2noc(C(F)(F)F)n2)cc1 [Compound 1.724, N-(2-hydroxyethyl)-4-methoxy-N-[[4-[5-(trifluoromethyl)-1,2,4-oxadiazol-3-yl]phenyl]methyl]-butanamide]
≥ 80%: inhibition of growth at 20 ppm [1] | pest or weed control at 200 ppm (Phakopsora Pachyrhizi) | pest or weed control at 200 ppm [2] | pest or weed control at 200 ppm [3]

CON(Cc1ccc(-c2noc(C(F)(F)F)n2)cc1)C(=O)NC1CCC1 [Compound 3.16, 3-cyclobutyl-1-methoxy-1-[[4-[5-(trifluoromethyl)-1,2,4-oxadiazol-3-yl]phenyl]methyl]urea]
≥ 80%: inhibition of growth at 20 ppm [1] | pest or weed control at 200 ppm (Phakopsora Pachyrhizi) | pest or weed control at 200 ppm [2] | pest or weed control at 200 ppm [3]

CCON(Cc1ccc(-c2noc(C(F)(F)F)n2)cc1)C(=O)C1(C)COC1 [Compound 1.623, N-ethoxy-3-methyl-N-[[4-[5-(trifluoromethyl)-1,2,4-oxadiazol-3-yl]phenyl]methyl]-oxetane-3-carboxamide]
≥ 80%: inhibition of growth at 20 ppm [1] | pest or weed control at 200 ppm (Phakopsora Pachyrhizi) | pest or weed control at 200 ppm [2] | pest or weed control at 200 ppm [3]

CCC(C)N(Cc1ccc(-c2noc(C(F)(F)F)n2)cc1)C(=O)CC(F)(F)F (centres unmarked) [Compound 1.404]
≥ 80%: inhibition of growth at 20 ppm [1] | pest or weed control at 200 ppm (Phakopsora Pachyrhizi) | pest or weed control at 200 ppm [2] | pest or weed control at 200 ppm [3]

CC1(C(=O)N(Cc2ccc(-c3noc(C(F)(F)F)n3)cc2)C2COC2)CC1 [Compound 1.743, 1-methyl-N-(oxetan-3-yl)-N-[[4-[5-(trifluoromethyl)-1,2,4-oxadiazol-3-yl]phenyl]methyl]-cyclopropane-carboxamide]
≥ 80%: inhibition of growth at 20 ppm [1] | pest or weed control at 200 ppm (Phakopsora Pachyrhizi) | pest or weed control at 200 ppm [2] | pest or weed control at 200 ppm [3]

CNC(=O)N(Cc1ccc(-c2noc(C(F)(F)F)n2)cc1)OC [Compound 3.4, 1-methoxy-3-methyl-1-[[4-[5-(trifluoromethyl)-1,2,4-oxadiazol-3-yl]phenyl]methyl]urea]
≥ 80%: inhibition of growth at 20 ppm [1] | pest or weed control at 200 ppm (Phakopsora Pachyrhizi) | pest or weed control at 200 ppm [2] | pest or weed control at 200 ppm [3]

CON(Cc1ccc(-c2noc(C(F)(F)F)n2)cc1)C(=O)C1(C(F)(F)F)CCC1 [Compound 1.19, N-methoxy-1-(trifluoromethyl)-N-[[4-[5-(trifluoromethyl)-1,2,4-oxadiazol-3-yl]phenyl]methyl]-cyclobutane-carboxamide]
≥ 80%: inhibition of growth at 20 ppm [1] | pest or weed control at 200 ppm (Phakopsora Pachyrhizi) | pest or weed control at 200 ppm [2] | pest or weed control at 200 ppm [3]

O=C(CC1CC1)N(O)Cc1ccc(-c2noc(C(F)(F)F)n2)cc1 [Compound 1.774, 2-cyclopropyl-N-hydroxy-N-[[4-[5-(trifluoromethyl)-1,2,4-oxadiazol-3-yl]phenyl]methyl]-acetamide]
≥ 80%: inhibition of growth at 20 ppm [1] | pest or weed control at 200 ppm (Phakopsora Pachyrhizi) | pest or weed control at 200 ppm [2] | pest or weed control at 200 ppm [3]

COC(C)C(=O)N(O)Cc1ccc(-c2noc(C(F)(F)F)n2)cc1 (centres unmarked) [Compound 1.772, N-hydroxy-2-methoxy-N-[[4-[5-(trifluoromethyl)-1,2,4-oxadiazol-3-yl]phenyl]methyl]-propanamide]
≥ 80%: inhibition of growth at 20 ppm [1] | pest or weed control at 200 ppm (Phakopsora Pachyrhizi) | pest or weed control at 200 ppm [2] | pest or weed control at 200 ppm [3]

CC1(C(=O)N(Cc2ccc(-c3noc(C(F)(F)F)n3)cc2)CC(F)(F)F)COC1 [Compound 1.698, 3-methyl-N-(2,2,2-trifluoroethyl)-N-[[4-[5-(trifluoromethyl)-1,2,4-oxadiazol-3-yl]phenyl]methyl]-oxetane-3-carboxamide]
≥ 80%: inhibition of growth at 20 ppm [1] | pest or weed control at 200 ppm (Phakopsora Pachyrhizi) | pest or weed control at 200 ppm [2] | pest or weed control at 200 ppm [3]
